From patent publication US20160058775A1, “COMPOSITION AND FORMULATION OF ANTIMICROBIAL AGENTS, PROCESSES THEREOF AND METHODS FOR TREATING MICROBIAL INFECTIONS” (VYOME BIOSCIENCES PVT. LTD., priority 2013, published 2016)
Where two headings read alike, the source gives them in different places.

System: M. furfur
From the text: The time-kill assays were used to evaluate efficacy of antimicrobial agents, either singly or in combination, and the results can help in establishing the dose and/or time of application of the active. The time-kill assays were used to study both concentration-dependent and time-dependent antimicrobial action.
M. furfur cells were suspended in Sabouraud Dextrose Broth (SDB) at inoculum concentration of 7×10^7 cells/ml. Cells were taken from a freshly growing (3-7 days old) plate and cell suspension was vortexed to remove the cell clumps as much as possible. Sterile media were supplemented with chloramphenicol (0.25 mg/ml), cycloheximide (0.04 mg/ml) and olive oil (2%). The media were then supplemented with appropriate concentrations (two-fold serial dilutions using SDB) of unmodified zinc pyrithione API (10 μg/ml and 50 μg/ml) with different concentrations of Capmul 908-P (0%, 1%, 3%, 5% & 9%). The cultures were incubated on a tube rotator at 34° C. in CO2 incubator.
To measure the colony forming units (CFU), at different time points, aliquots (50 μl) of Malassezia cultures were serially diluted with SDBT medium (SDB containing 0.1% Triton X-100) and plated on SDA plates. The plates are incubated at 34° C. in CO2 incubator for 3 days. The viable colonies were counted and converted to CFU/ml.

**Q.** Which results are given for zinc pyrithione [ZPT]?
**A.** Log CFU Count of M. furfur (ZPT 10 μg/ml, Capmul 908-P 30 μg/ml, 6 hrs): 6.50; Log CFU Count of M. furfur (ZPT 10 μg/ml, Capmul 908-P 30 μg/ml, 24 hrs): 5.94; Log CFU Count of M. furfur (ZPT 10 μg/ml, Capmul 908-P 30 μg/ml, 48 hrs): 5.06; Log CFU Count of M. furfur (ZPT 10 μg/ml, Capmul 908-P 50 μg/ml, 6 hrs): 6.37; Log CFU Count of M. furfur (ZPT 10 μg/ml, Capmul 908-P 50 μg/ml, 24 hrs): 5.57; Log CFU Count of M. furfur (ZPT 10 μg/ml, Capmul 908-P 50 μg/ml, 48 hrs): 4.80; Log CFU Count of M. furfur (ZPT 10 μg/ml, Capmul 908-P 90 μg/ml, 6 hrs): 6.33; Log CFU Count of M. furfur (ZPT 10 μg/ml, Capmul 908-P 90 μg/ml, 24 hrs): 5.55; Log CFU Count of M. furfur (ZPT 10 μg/ml, Capmul 908-P 90 μg/ml, 48 hrs): 4.77; Log CFU Count of M. furfur (ZPT 10 μg/ml, Capmul 908-P nil, 6 hrs): 6.56; Log CFU Count of M. furfur (ZPT 10 μg/ml, Capmul 908-P nil, 24 hrs): 6.13; Log CFU Count of M. furfur (ZPT 10 μg/ml, Capmul 908-P nil, 48 hrs): 5.27; Log CFU Count of M. furfur (ZPT 50 μg/ml, Capmul 908-P 30 μg/ml, 6 h): 6.06; Log CFU Count of M. furfur (ZPT 50 μg/ml, Capmul 908-P 30 μg/ml, 24 h): 4.69; Log CFU Count of M. furfur (ZPT 50 μg/ml, Capmul 908-P 30 μg/ml, 48 h): 3.25; Log CFU Count of M. furfur (ZPT 50 μg/ml, Capmul 908-P 50 μg/ml, 6 h): 5.94; Log CFU Count of M. furfur (ZPT 50 μg/ml, Capmul 908-P 50 μg/ml, 24 h): 4.62; Log CFU Count of M. furfur (ZPT 50 μg/ml, Capmul 908-P 50 μg/ml, 48 h): 3.04; Log CFU Count of M. furfur (ZPT 50 μg/ml, Capmul 908-P 90 μg/ml, 6 h): 5.52; Log CFU Count of M. furfur (ZPT 50 μg/ml, Capmul 908-P 90 μg/ml, 24 h): 3.63; Log CFU Count of M. furfur (ZPT 50 μg/ml, Capmul 908-P 90 μg/ml, 48 h): 2.08; Log CFU Count of M. furfur (ZPT 50 μg/ml, Capmul 908-P nil, 6 h): 6.43; Log CFU Count of M. furfur (ZPT 50 μg/ml, Capmul 908-P nil, 24 h): 5.39; Log CFU Count of M. furfur (ZPT 50 μg/ml, Capmul 908-P nil, 48 h): 3.92; Anti-microbial activity towards M. furfur with increasing concentration of propylene glycol monocaprylate (Capmul 908-P) (time-kill, Tables 12 and 13): gets potentiated
